The target of one experiment is PARP-1 (Homo sapiens, UniProt P09874). Conditions: previous study; cited from earlier work.
In experiment [1] the test system is PARP activity in SCC-25 cells. The experiment is described as follows: NAD assay: NAD. Conditions: pretreated with 1mM compound, MNNG 5μg/mL for 30 minutes (Figure 2C). The format is cell-based.
Experiment [2] deals with T1, PARG (Bos taurus, UniProt O02776). Conditions: previous study; cited from earlier work.
In experiment [3] the test system is PARG activity in SCC-25 cells. In words: PAR assay: PAR formation/turnover in SCC-25 cells after MNNG. The format is cell-based.
In experiment [4] the target is T1, PARG. The experiment is described as follows: PARG assay. The format is biochemical. The following applies: SAR discussion in text.

T1 sequence (O02776 385-977): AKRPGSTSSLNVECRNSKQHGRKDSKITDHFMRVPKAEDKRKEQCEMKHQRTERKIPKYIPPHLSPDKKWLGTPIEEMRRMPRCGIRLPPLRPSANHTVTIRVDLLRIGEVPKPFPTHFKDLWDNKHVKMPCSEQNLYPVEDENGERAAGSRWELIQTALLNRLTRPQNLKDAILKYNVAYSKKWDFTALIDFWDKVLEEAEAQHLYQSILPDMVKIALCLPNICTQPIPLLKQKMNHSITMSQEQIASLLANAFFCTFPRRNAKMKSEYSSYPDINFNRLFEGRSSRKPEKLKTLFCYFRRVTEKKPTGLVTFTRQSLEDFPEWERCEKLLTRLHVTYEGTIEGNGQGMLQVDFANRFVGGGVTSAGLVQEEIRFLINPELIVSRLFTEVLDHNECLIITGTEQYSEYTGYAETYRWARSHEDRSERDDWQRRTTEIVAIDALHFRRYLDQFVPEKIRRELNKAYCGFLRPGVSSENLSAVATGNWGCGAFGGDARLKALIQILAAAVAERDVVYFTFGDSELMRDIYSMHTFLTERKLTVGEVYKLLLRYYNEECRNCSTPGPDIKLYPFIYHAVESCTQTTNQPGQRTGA
Sequence of PARP-1 (P09874 whole entry): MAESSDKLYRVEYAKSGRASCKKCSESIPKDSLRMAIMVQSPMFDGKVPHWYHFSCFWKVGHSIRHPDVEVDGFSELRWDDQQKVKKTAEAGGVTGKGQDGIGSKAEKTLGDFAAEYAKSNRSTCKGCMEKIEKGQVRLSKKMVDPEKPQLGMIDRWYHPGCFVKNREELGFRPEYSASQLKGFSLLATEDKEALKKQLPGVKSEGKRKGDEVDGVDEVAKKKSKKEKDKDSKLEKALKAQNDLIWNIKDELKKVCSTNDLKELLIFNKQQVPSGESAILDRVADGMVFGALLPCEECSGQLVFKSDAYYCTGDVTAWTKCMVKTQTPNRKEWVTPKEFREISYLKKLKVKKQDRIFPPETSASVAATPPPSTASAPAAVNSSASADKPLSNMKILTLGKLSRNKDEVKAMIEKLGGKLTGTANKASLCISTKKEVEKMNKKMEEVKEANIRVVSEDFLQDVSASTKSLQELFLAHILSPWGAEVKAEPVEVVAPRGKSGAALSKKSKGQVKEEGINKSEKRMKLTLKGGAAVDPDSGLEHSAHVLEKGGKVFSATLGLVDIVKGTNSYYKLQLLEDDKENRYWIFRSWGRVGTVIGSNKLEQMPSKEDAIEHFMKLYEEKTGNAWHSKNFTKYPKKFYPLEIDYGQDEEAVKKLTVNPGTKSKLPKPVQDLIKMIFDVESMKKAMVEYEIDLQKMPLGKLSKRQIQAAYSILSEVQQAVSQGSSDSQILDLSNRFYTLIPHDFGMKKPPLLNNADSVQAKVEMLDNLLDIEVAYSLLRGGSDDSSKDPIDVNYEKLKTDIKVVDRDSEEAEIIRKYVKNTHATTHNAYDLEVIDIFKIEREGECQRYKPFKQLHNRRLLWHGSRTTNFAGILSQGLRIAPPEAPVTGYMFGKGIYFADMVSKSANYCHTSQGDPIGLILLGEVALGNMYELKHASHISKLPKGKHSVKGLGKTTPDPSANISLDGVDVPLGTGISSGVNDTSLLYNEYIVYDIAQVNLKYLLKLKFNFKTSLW

With `Nc1ncnc2c1ncn2[C@@H]1O[C@H](COP(=O)(O)OP(=O)(O)OC[C@H]2NC[C@H](O)[C@@H]2O)[C@@H](O)[C@H]1O` [ADP-HPD, adenosine 5′-diphosphate (hydroxymethyl) pyrrolidinediol], the “inhibition of PARP-1 (in words)” value on PARP-1 is “does not inhibit PARP-1”. On to `NC(=O)c1ccccc1` [Benzamide, benzamide, reference compound], for which, in experiment [1], the “inhibition of NAD(H) depletion (in words)” value is on record as “complete inhibition of NAD(H) depletion”. In addition, at PARG [2], the “inhibition of PARG (in words)” value is “does not inhibit PARG”. Take `O=C(Nc1ccc(Oc2ccc3ccccc3c2)c(Cl)c1)c1cc(Cl)cc(Cl)c1O` [Compound 6a, 3,5-dichloro-N-(3-chloro-4-(naphthalen-2-yloxy)phenyl)-2-hydroxybenzamide]: in experiment [1], the “inhibition of NAD(H) depletion (in words)” value is given as “partial inhibition of NAD(H) consumption”. In addition, the “increase of PAR accumulation at 10 min” value in experiment [3] (SCC-25 cells pre-incubated with 1mM compound, MNNG 5μg/mL (Figure 3B)) is listed as “approximately 3 fold”. Further, in experiment [3] (SCC-25 cells, 1mM compound, MNNG 5μg/mL), the “inhibition of PARG in intact cells (in words)” value is listed as “nearly complete inhibition of PARG”. In the case of `O=C(Nc1ccc(Oc2ccc3ccccc3c2)c(Cl)c1)c1cc(Cl)cc(Cl)c1` [Compound 6b, 3,5-dichloro-N-(3-chloro-4-(naphthalen-2-yloxy)phenyl)benzamide], the “inhibition of NAD(H) depletion (in words)” value in experiment [1] is “minimal effect”. Further, the “PARG inhibition (in words)” value on PARG [4] was “loss of detectable inhibition of PARG”.

On to `COc1c(Cl)cc(Cl)cc1C(=O)Nc1ccc(Oc2ccc3ccccc3c2)c(Cl)c1` [Compound 6f, 3,5-dichloro-N-(3-chloro-4-(naphthalen-2-yloxy)phenyl)-2-methoxybenzamide], for which the “PARG inhibition (in words)” value on PARG [4] is reported as “loss of detectable PARG inhibition”. Still for that read-out and setting: under `O=C(O)c1ccccc1C(=O)Nc1ccc(Oc2ccc3ccccc3c2)c(Cl)c1` [Compound 6g, 2-(3-chloro-4-(naphthalen-2-yloxy)phenylcarbamoyl)benzoic acid] stands “PARG inhibition was retained”. For `NC(=O)c1cc(Cl)cc(Cl)c1O` [Compound 7, 3,5-dichloro-2-hydroxybenzamide], the “inhibition of NAD(H) depletion (in words)” value in experiment [1] is recorded as “minimal effect”. Besides, the “PARG inhibition (in words)” value on PARG [4] is on record as “loss of detectable PARG inhibition”.

`O=C(Nc1ccc(O)c(Cl)c1)c1cc(Cl)cc(Cl)c1O` [Compound 8a, 3,5-dichloro-N-(3-chloro-4-hydroxyphenyl)-2-hydroxybenzamide]: the “PARG inhibition (in words)” value at PARG [4] is listed as “complete loss of PARG inhibition”. Regarding `O=C(Nc1ccccc1Cl)c1cc(Cl)cc(Cl)c1O` [Compound 8b, 3,5-dichloro-N-(2-chlorophenyl)-2-hydroxybenzamide], on PARG [4], the “PARG inhibition (in words)” value was “slight loss of potency”. Consider `O=C(Nc1cccc(Cl)c1)c1cc(Cl)cc(Cl)c1O` [Compound 8c, 3,5-dichloro-N-(3-chlorophenyl)-2-hydroxybenzamide], for which, at PARG [4], the “PARG inhibition (in words)” value is “PARG inhibition returned although at low potency”. Turning to `O=C(Nc1ccc(Cl)cc1)c1cc(Cl)cc(Cl)c1O` [Compound 8d, 3,5-dichloro-N-(4-chlorophenyl)-2-hydroxybenzamide], in experiment [1], the “inhibition of NAD(H) depletion (in words)” value was “partial inhibition of NAD(H) consumption”. In addition, the “PARG inhibition (in words)” value on PARG [4] is “slight loss of potency”.

Take `O=C(Nc1ccccc1)c1cc(Cl)cc(Cl)c1O` [Compound 8h, 3,5-dichloro-2-hydroxy-N-benzamide]: the “PARG inhibition (in words)” value at PARG [4] is recorded as “not enough to detect PARG inhibition”.

For the compound `Oc1c(Cl)cc(Cl)cc1/C=N/c1ccc(Oc2ccc3ccccc3c2)c(Cl)c1` [Compound 9, 2,4-dichloro-6-((3-chloro-4-(naphthalen-2-yloxy)phenylimino)methyl)phenol], the “PARG inhibition (in words)” value on PARG [4] is recorded as “loss of PARG inhibition”. Consider `Oc1c(Cl)cc(Cl)cc1CNc1ccc(Oc2ccc3ccccc3c2)c(Cl)c1` [Compound 10, 2,4-dichloro-6-((3-chloro-4-(naphthalen-2-yloxy)phenylamino)methyl)phenol], for which, at PARG [4], the “PARG inhibition (in words)” value is reported as “loss of PARG inhibition”.

Values taken from paper PMC3150619 (Journal of medicinal chemistry, 2011).
